Reference: patent US20110105397A1, “METHOD FOR TREATING HEART FAILURE WITH STRESSCOPIN-LIKE PEPTIDES” (priority 2009, published 2011)
Read-outs that look alike come from different tables or passages of the source.

Tests used:
[1] = in vivo; conditions: mongrel, dog, iv, [SEQ ID NO: 1] plasma concentration
Method: A sandwich immunoassay was developed using an affinity purified goat polyclonal antibody, specific to h-SCP that was pre-coated onto a microplate with integrated electrodes. h-SCP molecules present in the sample will bind to the capture polyclonal antibody coated on the plate. After washing away any unbound substances, a sulfo-tagged mouse monoclonal anti-h-SCP antibody was added. This conjugated antibody will bind to the h-SCP molecules captured on the microplate and the quantity of analyte was determined by electrochemiluminescence. The amount of signal generated is directly proportional to the h-SCP concentration in the sample or standard. The standard curve range is 3.125-1600 pg/mL with a quantifiable range from 10-800 pg/mL. A sample volume of 25 μL (in duplicate) is required for this assay. This immunoassay is specific for human and dog stresscopin and human urocortin III (h-UCN3). […] After completion of the analysis, based on a comparison of reference standards between the ELISA and HPLC method, a correction factor of 1.57 was applied to all bioanalytical data.
The effects of h-SCP (SEQ ID NO:1) on cardiovascular function were also assessed in anaesthetized dogs with advanced, irreversible heart failure of ischemic etiology (Sabbah et al., 1991, Am. J. Physiol., vol. 260, pp. H1379-H1384; Sabbah et al., 1994, Circulation, vol. 98, pp. 2852-2859; Chandler et al., 2002, Circ. Res., vol. 91, pp. 278-280). Progressive, advanced heart failure was produced in mongrel dogs by multiple sequential intracoronary microembolization with polystyrene latex microspheres. Dose infusions of 2.2, 4.3, and 7.3 ng/kg/min were administered intravenously over 60 minutes just following or just prior to hemodynamic, angiographic, echocardiographic, and Doppler measurements using conventional hemodynamic, angiographic, echocardiographic, and radiographic methods. The h-SCP polypeptide (SEQ ID NO:1) produced dose- (infusion-) dependent increases in LVEF and SV and decreases in left ventricular end diastolic pressure (LVEDP), left ventricular pressure during isovolumic relaxation (LV-dP/dt), systemic vascular resistance (SVR), and left ventricular end-systolic volume (LVESV) that correlated with plasma concentration. No significant change in heart rate, peak systolic aortic blood pressure, LV+dP/dt, mean pulmonary artery pressure, mean pulmonary artery wedge pressure, right atrial pressure, or myocardial oxygen consumption were recorded following any of the 1 hour intravenous infusions (Table 18 and FIGS. 12 A & B). The improvement in LV systolic and diastolic function was not associated with the development of de novo ventricular arrhythmias.
In order to determine the threshold effective dose-infusion in dogs with advanced heart failure, a further study was performed at lower dose infusions. In addition, the opportunity was taken to explore whether the increase in LVEF produced by higher dose-infusions of 4.3 ng/kg/min would remain stable over a longer infusion period, i.e. 120 minutes.

[2] = tested on: dogs with advanced heart failure; test: LV pressure-volume relationship in dogs with advanced heart failure, 120-min infusion; format: in vivo, dog; conditions: HF dogs
Method: In a subsequent study baseline hemodynamic, ventriculographic, echocardiographic and LV pressure-volume was measured, before each dog was intravenously administered a continuous, 4.3 ng/kg/min infusion of h-SCP (SEQ ID NO:1) for 120 min. At the end of the 120-min infusion, complete hemodynamic, ventriculographic, echocardiographic, and LV pressure-volume measurements were repeated. Lead II on the electrocardiogram was monitored throughout the study for development of de novo ventricular arrhythmias. The dosing solutions were not adjusted or corrected for peptide content since the peptide content of the test article used in these studies fell between the customary 85-90% limit where this correction is not required. […]
All hemodynamic measurements were made during left and right heart catheterizations in anaesthelized dogs at each specified study time point. Aortic and LV pressures were measured using cathetenip micromanometers (Millar Instruments, Houston, Tex.), and LV end-diastolic pressure (LVEDP) was measured from the LV pressure waveform. […] Ventriculography were recorded on digital media at 30 frames per second during a power injection of 15 mL of contrast material (Conray; Mallinckrodt Inc., St. Louis, Mo.). […] The end-systolic and end-diastolic pressure-volume points were determined for beats at end-expiration in the usual fashion. […]

[3] = Human pharmacokinetics, healthy subjects, 24- or 72-hour infusion of 54 ng/kg/min; conditions: in vivo; for Vd: Vss; for Tmax: median
Method: In healthy subjects following a 24- or 72-hour infusion of 54 ng/kg/min of h-SCP (SEQ ID NO:1) noncompartmental pharmacokinetic analyses were performed on plasma concentrations of h-SCP (SEQ ID NO:1).

[4] = male, 54 ng/kg, healthy subjects, 54 ng/kg/min, 24 Hours Male, mean, N = 7
[5] = male, 54 ng/kg, healthy subjects, 54 ng/kg/min, 72 Hours Male, mean, N = 7

## H-TKFTLSLDVPTNIMNLLFNIAKAKNLRAQAAANAHLMAQI-NH2 [SEQ ID NO: 1, TKFTLSLDVPTNIMNLLFNIAKAKNLRAQAAANAHLMAQI-NH2]
[1]; 0.22 ng/kg/min
  level at 1 h: 0.0412 ± 0.0149 ng/mL
  level at time molar at 1 h: 0.0094 ± 0.0034 nM
[1]; 0.43 ng/kg/min
  level at 1 h: 0.0372 ± 0.0139 ng/mL
  level at time molar at 1 h: 0.0085 ± 0.0032 nM
[1]; 2.2 ng/kg/min
  level at 1 h: 0.141 ± 0.0182 ng/mL
  level at time molar at 1 h: 0.0324 ± 0.0042 nM
[1]; 4.3 ng/kg/min
  level at 1 h: 0.178 ± 0.0211 ng/mL
  level at 2 h: 0.249 ± 0.0479 ng/mL
  level at time molar at 1 h: 0.0408 ± 0.0048 nM
  level at time molar at 2 h: 0.057 ± 0.011 nM
[1]; 7.3 ng/kg/min
  level at 1 h: 0.279 ± 0.0296 ng/mL
  level at time molar at 1 h: 0.0639 ± 0.0068 nM
[2]; 4.3 ng/kg/min infusion for 120 min (untreated 0.257)
  absolute value of EDPVR slope: 0.128
[2]; 4.3 ng/kg/min infusion for 120 min (untreated 1.38±0.26)
  slope of the ESPVR: 2.26±0.46
[3]; female, 54 ng/kg, T1/2
  half-life: 23.4 h
[3]; female, 54 ng/kg, T1/2, effective
  half-life: 5.84 h
[3]; female, 54 ng/kg
  Vd: 2.72 L/kg
[3]; female, 54 ng/kg, healthy subjects, 54 ng/kg/min, 72 Hours Female, mean, N = 5
  AUC(0-inf): 740 ng·h/mL
[3]; female, 54 ng/kg, healthy subjects, 54 ng/kg/min, 72 Hours Female, mean, N = 6
  Cmax: 11.5 ng/mL
[3]; female, 54 ng/kg, healthy subjects, 54 ng/kg/min, 72 Hours Female, mean, N = 6, read-out: CL (converted)
  clearance: 5.5 mL/min/kg
[3]; female, 54 ng/kg, healthy subjects, 54 ng/kg/min, 72 Hours Female, N = 6
  Tmax: 18 h
[3]; 54 ng/kg/min, healthy subjects, 24- or 72-hour infusion of 54 ng/kg/min, read-out: Mean terminal half-life
  half-life: 23.4 to 28.8 h
[3]; 54 ng/kg/min, healthy subjects, 24- or 72-hour infusion of 54 ng/kg/min, read-out: effective half-life
  half-life: 5.84 to 9.62 h
[3]; 54 ng/kg/min, healthy subjects, 24- or 72-hour infusion of 54 ng/kg/min, read-out: mean clearance
  clearance: 4.67 to 6.33 mL/min/kg
[3]; male, 54 ng/kg
  T1/2: 28.81 h
  T1/2, effective: 9.62 h
  Vss: 4.94 L/kg
  Vd: 3.7 L/kg
[3]; male, 54 ng/kg, T1/2
  half-life: 25.7 h
[3]; male, 54 ng/kg, T1/2, effective
  half-life: 9.37 h
[3]; [4]
  AUC(0-inf): 283 ng·h/mL
  Cmax: 12.2 ng/mL
[3]; male, 54 ng/kg, healthy subjects, 54 ng/kg/min, 24 Hours Male, mean, N = 7, read-out: CL (converted)
  clearance: 4.67 mL/min/kg
[3]; male, 54 ng/kg, healthy subjects, 54 ng/kg/min, 24 Hours Male, N = 7
  Tmax: 16 h
[3]; [5]
  AUC(0-inf): 632 ng·h/mL
  Cmax: 10.2 ng/mL
[3]; male, 54 ng/kg, healthy subjects, 54 ng/kg/min, 72 Hours Male, mean, N = 7, read-out: CL (converted)
  clearance: 6.33 mL/min/kg
[3]; male, 54 ng/kg, healthy subjects, 54 ng/kg/min, 72 Hours Male, N = 7
  Tmax: 24 h
